Measurements published in USRE28700E, “Antibiotic X-5108 for stimulating growth” (Hoffmann-La Roche Inc., priority 1972, dated 1976).
Read-outs that look alike come from different tables or passages of the source.

Legend:
Streptococcus pyogenes = assay: Activity against Streptococcus pyogenes infection (CD50); format: in vivo
Diplococcus pneumoniae = assay: Activity against Diplococcus pneumoniae (CD50); format: in vivo
[1] = Growth stimulating effect and feed efficiency in chicks, repeated trials at varied levels (Table 13); format: in vivo, Cornish Cross Sexed Broiler Chicks; details: for Percent gain: control = 100
Protocol: (§1) The growth stimulating effects of antibiotic X-5108 were determined by allowing poultry to feed, ad libitum, on the antibiotic supplemented ration. In the test, one day old Cornish Cross Sexed Broiler Chicks were used. The test utilized 10 chicks per replicate (5 males and 5 females). The replicate groups were permitted access to the ration. A planned random distribution of the replicates was made to equalize factors of heating, light and position. The birds were observed over a two week period, with group weight being determined several times during the period and individual weights being determined at the end of 14 days. Feed consumption was also recorded and improvement in feed efficiency, as compared to the control, was calculated.
(§2) The average gain for each test group is divided by the average gain of the negative control group and the quotient multiplied by 100 to yield the percent weight gain. Gain is the final body weight of the chick at the end of the 2 week test minus the beginning weight of 1 day of age. [formula]
The experiment described in Example 5, including the control, was repeated several times using the same basal ration as in Example 5. In these trials the level of antibiotic X-5108 was varied. The trial chickens were fed on supplemented feed rations containing the active ingredient in a ratio of 5, 10, 25, 50 and 100 mg. per kg. of feed. These trials were repeated to confirm the results. In the control test four replicates of ten birds were allowed to feed on a basal ration devoid of the antibiotic supplement. […] Feed consumption was also recorded and improvements in feed efficiency in comparison to the control were calculated. Table 13 records the results of this series of experiments.

Bacillus simplex = assay: Agar diffusion cup-plate assay, Bacillus simplex; format: cell-based; details: arbitrarily defined 1 unit/ml. solution
Protocol: (§3) The activity of antibiotic X-5108 can be measured in vitro by its zone of inhibition against the gram-positive bacterium Bacillus E in the usual cup-plate agar diffusion method. Alternately the gram-positive bacterium Bacillus simplex can be employed. Both bacteria give approximately 20 mm. inhibition zones with an arbitrarily defined 1 unit/ml. solution. In this assay method, a culture of the test microorganism is grown in nutrient broth, for example, Trypticase Soy Broth, for 24 to 42 hours at 28° C. in a rotary shaker (100 ml. medium per 500 ml. Erlenmeyer flask). An inoculum concentration of 0.25 to 0.5 percent is used to inoculate the 4 ml. seed layer which is poured over a prehardened 20 ml. of base nutrient agar layer in a 100 ml. glass or disposable plastic Petri dish. The plates are refrigerated for at least two hours before cupping and filling with test solution containing the antibiotic. The plates are then incubated at 35° C. for 18 hours and zone diameters are measured to the nearest 0.5 mm. Calculations of unit per ml. potencies are then made from standard curves.
(§4) The antimicrobial spectrum was determined by employing agar diffusion cup-plate assays as described earlier.

mice = assay: Acute toxicity in mice (LD50), oral and subcutaneous; format: in vivo
[2] = test system: a variety of microorganisms including gram-positive and gram-negative bacteria; assay: Antimicrobial activity in general / biopotency; format: cell-based
Protocol: as §3, §4

Proteus vulgaris = assay: Activity against gram-negative Proteus vulgaris infection; details: in vivo
[3] = Growth promotion in poultry (general statement); format: in vivo
caecal coccidiosis = assay: Activity in caecal coccidiosis; details: in vivo
[4] = Growth stimulating effect and feed efficiency in broiler chicks (Table 12); format: in vivo, Cornish Cross Sexed Broiler Chicks
Protocol: A basal ration was prepared containing the following named ingredients in the quantities hereinafter indicated: […]
Antibiotic X-5108 was added to this ration in a ratio of 50 milligrams of antibiotic per kilogram of ration.
as §1, §2

Bacillus E = assay: Agar diffusion cup-plate assay, Bacillus E; format: cell-based
Protocol: as §3, §4

For C/C=C\C=C\[C@@H]1O[C@](O)([C@H](CC)C(=O)NC/C=C/C=C(\C)[C@@H](OC)[C@@H](C)[C@@H]2O[C@H](/C=C/C=C/C=C(\C)C(=O)c3c(O)ccn(C)c3=O)[C@H](O)[C@@H]2O)[C@H](O)[C@H](O)C1(C)C [Antibiotic X-5108], the CD50 (Streptococcus pyogenes; orally) was 52 mg/kg, the CD50 (Streptococcus pyogenes; subcutaneously) was 44 mg/kg and the “antistreptococcal activity (in words)” value (Streptococcus pyogenes; systemically (oral route) and local (subcutaneous route)) was “marked antistreptococcal activity”. For the same molecule, the “activity against pneumococcus (in words)” value (Diplococcus pneumoniae; in vivo) was “activity against pneumococcus”, the CD50 (Diplococcus pneumoniae; p.o.) was 807 mg/kg and the CD50 (Diplococcus pneumoniae; sbc (subcutaneous)) was 283 mg/kg. For the same molecule, the “Percent improved feed eff.” value ([1]; 10 mg./kg., 18 birds) was “+13%”, the Feed eff. ([1]; 10 mg./kg., 18 birds, control 1.54) was 1.41 and the “Two-week gain” value ([1]; 10 mg./kg., 18 birds, control 149) was 185 g. The Percent gain ([1]; 10 mg./kg., 18 birds) was 124%, the “Percent improved feed eff.” value ([1]; 25 mg./kg., 18 birds) was “+16%” and the Feed eff. ([1]; 25 mg./kg., 18 birds, control 1.59) was 1.37. For the same molecule, the “Two-week gain” value ([1]; 25 mg./kg., 18 birds, control 146) was 180 g, the Percent gain ([1]; 25 mg./kg., 18 birds) was 123% and the “Percent improved feed eff.” value ([1]; 50 mg./kg., 18 birds) was “+7%”. The Feed eff. ([1]; 50 mg./kg., 18 birds, control 1.47) was 1.38, the “Two-week gain” value ([1]; 50 mg./kg., 18 birds, control 152) was 173 g and the Percent gain ([1]; 50 mg./kg., 18 birds) was 114%. For the same molecule, the “Percent improved feed eff.” value ([1]; 50 mg./kg., 24 birds) was “+12%”, the Feed eff. ([1]; 50 mg./kg., 24 birds, control 1.54) was 1.37 and the “Two-week gain” value ([1]; 50 mg./kg., 24 birds, control 149) was 175 g. For the same molecule, the Percent gain ([1]; 50 mg./kg., 24 birds) was 117%, the “Percent improved feed eff.” value ([1]; 100 mg./kg., 18 birds) was “+14%” and the Feed eff. ([1]; 100 mg./kg., 18 birds, control 1.54) was 1.33. The “Two-week gain” value ([1]; 100 mg./kg., 18 birds, control 149) was 182 g, the Percent gain ([1]; 100 mg./kg., 18 birds) was 122% and the “Percent improved feed eff.” value ([1]; level not given, 18 birds) was “+9%”. For the same molecule, the Feed eff. ([1]; level not given, 18 birds, control 1.51) was 1.39, the “Two-week gain” value ([1]; level not given, 18 birds, control 149) was 183 g and the Percent gain ([1]; level not given, 18 birds) was 123%. For the same molecule, the inhibition zone (Bacillus simplex) was “approximately 20 mm”, the LD50 (mice; mice, oral) was > 2,000 mg./kg and the “toxicity in mice (in words)” value (mice; mice, orally and subcutaneously) was “relatively atoxic orally and subcutaneously”. For the same molecule, the LD50 (mice; mice, subcutaneous) was 1,320 mg./kg, the “oral and parenteral toxicity (in words)” value (mice; oral and parenteral) was “low oral and parenteral toxicity” and the “bipotency relative to starting material” value ([2]; after countercurrent distribution, Example 3) was “approximately twice that of the starting material”. For the same molecule, the “antimicrobial spectrum (in words)” value ([2]; agar diffusion cup-plate) was “broad antimicrobial spectrum”, the “activity against a variety of microorganisms (in words)” value ([2]; crude or more purified form) was “active against a variety of microorganisms including gram-positive and gram-negative bacteria” and the “activity against Proteus vulgaris infection (in words)” value (Proteus vulgaris) was “active”. The “feed efficiency in poultry (in words)” value [3] was “enhanced feed efficiency”, the “growth promotion in poultry (in words)” value [3] was “exhibits activity as a poultry growth promotant” and the “growth promotion in poultry (in words)” value ([3]; listed as antibiotic X-5108) was “marked growth promotion in poultry”. For the same molecule, the “activity in caecal coccidiosis (in words)” value (caecal coccidiosis) was “activity”, the “growth rate compared to control (in words)” value ([4]; 50 mg. per kilogram of feed) was “increased growth rate” and the “improvement in feed efficiency” value ([4]; 50 mg. per kilogram of feed, vs control) was 10%. For the same molecule, the “Two-week gain, g. ±2SE” value ([4]; 50 mg./kg. feed, average for 40 chicks, basal control 154±8) was 185 ± 12 g, the Feed efficiency ([4]; 50 mg./kg. feed, two weeks, control 1.55) was 1.39 and the Percent gain ([4]; 50 mg./kg. feed, two weeks, control = 100) was 120%. The “Percent improved feed efficiency” value ([4]; 50 mg./kg. feed, vs control) was “+12%”, the inhibition zone (Bacillus E; arbitrarily defined 1 unit/ml. solution) was “approximately 20 mm” and the “potency against Bacillus E” value (Bacillus E; solid powder after butyl acetate extraction, Example 1) was 120 units Bacillus E per mg.
